The values that follow come from patent US20200392158A1, “INHIBITORS OF LEUCINE RICH REPEAT KINASE 2” (GLAXOSMITHKLINE INTELLECTUAL PROPERTY DEVELOPMENT LIMITED, priority 2017, published 2020).

In assay [1] the target is T1, full length G2019 human LRRK2 (Homo sapiens, UniProt Q5S007, R50H).
T1 construct: made in house; host or cells: HEK293 6E cells transduced with BacMam virus (virus generated in Sf9 cells)
Kind of assay: Full length G2019 human LRRK2 inhibition mass spectrometry assay. Format: biochemical. Particulars: LRRKtide to phospho-LRRKtide conversion, RapidFire MS, 2 mM ATP. In a few lines:
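Inhibition taken as reduced LRRKtide phosphorylation, quantified by RapidFire-coupled triple-quadrupole MS as product/(product+substrate) peak area. Reaction: 2 mM ATP, 25 μM peptide, ~25 nM full-length G2019 Flag-LRRK2, Hepes pH 7.2 buffer, room temperature for 1 h. 11-point 1-in-4 dilutions from 100 μM; logistic fit gives IC50, reported as pIC50.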

The target of assay [2] is T2, LRRK2 kinase in SH-SY5Y cells over-expressing recombinant full length LRRK2 (Homo sapiens, UniProt Q5S007).
T2 construct: A BacMam virus expressing full length recombinant LRRK2 was purchased from Invitrogen; host or cells: SH-SY5Y human neuroblastoma cells transduced with BacMam LRRK2 virus
Description: Recombinant cellular LRRK2 AlphaScreen assay (LRRK2 Ser935 phosphorylation). Format: cell-based. Particulars: 60 min. The procedure, abridged: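 Read-out is AlphaScreen of LRRK2 pSer935 over total LRRK2 in lysates of SH-SY5Y cells over-expressing full-length LRRK2 via BacMam (24 h transduction). Cells were exposed 60 min at 37 °C to an 11-point 1-in-4 dilution series starting at 10 uM; sigmoidal fit.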

SMILES strings stand for the structures. pIC50: −log10 of the molar value.

T1 sequence (Q5S007 with tags, fused parts or gaps R50H): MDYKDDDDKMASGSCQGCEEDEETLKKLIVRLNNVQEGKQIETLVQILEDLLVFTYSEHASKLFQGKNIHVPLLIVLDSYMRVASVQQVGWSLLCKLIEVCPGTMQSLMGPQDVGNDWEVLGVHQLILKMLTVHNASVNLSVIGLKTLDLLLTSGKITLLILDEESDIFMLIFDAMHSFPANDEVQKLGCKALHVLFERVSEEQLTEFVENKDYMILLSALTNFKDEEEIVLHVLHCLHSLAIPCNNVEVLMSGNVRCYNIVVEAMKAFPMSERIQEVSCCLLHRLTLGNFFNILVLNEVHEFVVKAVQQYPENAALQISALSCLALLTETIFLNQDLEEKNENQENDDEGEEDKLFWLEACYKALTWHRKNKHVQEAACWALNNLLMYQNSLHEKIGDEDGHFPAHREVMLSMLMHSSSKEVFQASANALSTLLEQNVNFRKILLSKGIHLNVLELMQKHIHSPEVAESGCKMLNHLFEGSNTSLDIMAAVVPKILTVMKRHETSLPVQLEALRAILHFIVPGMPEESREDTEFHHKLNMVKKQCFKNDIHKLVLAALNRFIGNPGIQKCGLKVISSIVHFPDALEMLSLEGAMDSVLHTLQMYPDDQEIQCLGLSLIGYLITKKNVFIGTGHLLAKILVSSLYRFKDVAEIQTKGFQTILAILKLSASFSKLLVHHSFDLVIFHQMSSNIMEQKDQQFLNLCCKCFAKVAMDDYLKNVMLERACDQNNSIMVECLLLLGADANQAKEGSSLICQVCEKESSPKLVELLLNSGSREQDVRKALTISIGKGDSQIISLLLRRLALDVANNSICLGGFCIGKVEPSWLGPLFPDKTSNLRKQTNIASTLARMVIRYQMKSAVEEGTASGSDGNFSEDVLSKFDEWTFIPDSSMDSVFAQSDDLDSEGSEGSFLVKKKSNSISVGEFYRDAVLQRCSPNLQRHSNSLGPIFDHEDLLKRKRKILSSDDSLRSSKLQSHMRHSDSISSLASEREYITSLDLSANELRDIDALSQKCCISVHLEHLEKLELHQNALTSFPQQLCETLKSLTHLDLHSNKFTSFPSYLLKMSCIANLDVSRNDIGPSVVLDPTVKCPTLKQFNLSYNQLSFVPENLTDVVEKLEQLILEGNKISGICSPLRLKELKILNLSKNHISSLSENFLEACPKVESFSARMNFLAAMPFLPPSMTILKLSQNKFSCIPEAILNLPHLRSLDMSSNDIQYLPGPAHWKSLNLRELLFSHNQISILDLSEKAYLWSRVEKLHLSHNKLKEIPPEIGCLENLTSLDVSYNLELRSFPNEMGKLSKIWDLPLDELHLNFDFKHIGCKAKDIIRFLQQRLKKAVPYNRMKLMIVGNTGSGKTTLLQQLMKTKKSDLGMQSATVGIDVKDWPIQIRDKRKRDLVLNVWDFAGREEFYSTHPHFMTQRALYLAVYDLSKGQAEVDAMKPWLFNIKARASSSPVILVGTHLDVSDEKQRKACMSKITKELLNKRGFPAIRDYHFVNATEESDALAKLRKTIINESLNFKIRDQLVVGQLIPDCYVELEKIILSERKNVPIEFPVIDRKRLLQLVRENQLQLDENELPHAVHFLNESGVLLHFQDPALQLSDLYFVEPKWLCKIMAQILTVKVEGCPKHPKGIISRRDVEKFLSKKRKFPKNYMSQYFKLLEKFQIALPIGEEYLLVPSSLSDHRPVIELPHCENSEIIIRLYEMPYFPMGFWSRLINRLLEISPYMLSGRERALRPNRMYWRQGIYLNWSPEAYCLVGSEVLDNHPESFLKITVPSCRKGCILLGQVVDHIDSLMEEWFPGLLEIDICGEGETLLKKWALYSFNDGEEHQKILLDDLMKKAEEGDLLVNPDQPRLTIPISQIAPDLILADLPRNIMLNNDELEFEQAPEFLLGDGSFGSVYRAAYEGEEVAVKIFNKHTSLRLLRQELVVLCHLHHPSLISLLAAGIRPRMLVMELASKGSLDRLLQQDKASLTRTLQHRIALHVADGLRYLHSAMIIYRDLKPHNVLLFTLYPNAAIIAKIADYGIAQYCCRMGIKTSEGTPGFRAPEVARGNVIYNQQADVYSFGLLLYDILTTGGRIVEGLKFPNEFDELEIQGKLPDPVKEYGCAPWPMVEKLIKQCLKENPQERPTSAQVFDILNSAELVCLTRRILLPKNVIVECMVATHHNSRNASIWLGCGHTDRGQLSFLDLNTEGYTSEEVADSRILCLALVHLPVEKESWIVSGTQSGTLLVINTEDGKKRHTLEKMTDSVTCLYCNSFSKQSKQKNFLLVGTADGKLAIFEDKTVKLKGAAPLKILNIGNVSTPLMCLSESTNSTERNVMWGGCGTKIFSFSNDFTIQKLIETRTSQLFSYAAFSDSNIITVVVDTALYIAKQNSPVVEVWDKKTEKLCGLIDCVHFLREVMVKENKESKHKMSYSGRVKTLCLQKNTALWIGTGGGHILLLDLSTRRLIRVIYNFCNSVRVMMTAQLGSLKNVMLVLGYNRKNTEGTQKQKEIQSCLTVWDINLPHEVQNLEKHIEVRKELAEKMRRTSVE
T2 sequence (Q5S007 whole entry): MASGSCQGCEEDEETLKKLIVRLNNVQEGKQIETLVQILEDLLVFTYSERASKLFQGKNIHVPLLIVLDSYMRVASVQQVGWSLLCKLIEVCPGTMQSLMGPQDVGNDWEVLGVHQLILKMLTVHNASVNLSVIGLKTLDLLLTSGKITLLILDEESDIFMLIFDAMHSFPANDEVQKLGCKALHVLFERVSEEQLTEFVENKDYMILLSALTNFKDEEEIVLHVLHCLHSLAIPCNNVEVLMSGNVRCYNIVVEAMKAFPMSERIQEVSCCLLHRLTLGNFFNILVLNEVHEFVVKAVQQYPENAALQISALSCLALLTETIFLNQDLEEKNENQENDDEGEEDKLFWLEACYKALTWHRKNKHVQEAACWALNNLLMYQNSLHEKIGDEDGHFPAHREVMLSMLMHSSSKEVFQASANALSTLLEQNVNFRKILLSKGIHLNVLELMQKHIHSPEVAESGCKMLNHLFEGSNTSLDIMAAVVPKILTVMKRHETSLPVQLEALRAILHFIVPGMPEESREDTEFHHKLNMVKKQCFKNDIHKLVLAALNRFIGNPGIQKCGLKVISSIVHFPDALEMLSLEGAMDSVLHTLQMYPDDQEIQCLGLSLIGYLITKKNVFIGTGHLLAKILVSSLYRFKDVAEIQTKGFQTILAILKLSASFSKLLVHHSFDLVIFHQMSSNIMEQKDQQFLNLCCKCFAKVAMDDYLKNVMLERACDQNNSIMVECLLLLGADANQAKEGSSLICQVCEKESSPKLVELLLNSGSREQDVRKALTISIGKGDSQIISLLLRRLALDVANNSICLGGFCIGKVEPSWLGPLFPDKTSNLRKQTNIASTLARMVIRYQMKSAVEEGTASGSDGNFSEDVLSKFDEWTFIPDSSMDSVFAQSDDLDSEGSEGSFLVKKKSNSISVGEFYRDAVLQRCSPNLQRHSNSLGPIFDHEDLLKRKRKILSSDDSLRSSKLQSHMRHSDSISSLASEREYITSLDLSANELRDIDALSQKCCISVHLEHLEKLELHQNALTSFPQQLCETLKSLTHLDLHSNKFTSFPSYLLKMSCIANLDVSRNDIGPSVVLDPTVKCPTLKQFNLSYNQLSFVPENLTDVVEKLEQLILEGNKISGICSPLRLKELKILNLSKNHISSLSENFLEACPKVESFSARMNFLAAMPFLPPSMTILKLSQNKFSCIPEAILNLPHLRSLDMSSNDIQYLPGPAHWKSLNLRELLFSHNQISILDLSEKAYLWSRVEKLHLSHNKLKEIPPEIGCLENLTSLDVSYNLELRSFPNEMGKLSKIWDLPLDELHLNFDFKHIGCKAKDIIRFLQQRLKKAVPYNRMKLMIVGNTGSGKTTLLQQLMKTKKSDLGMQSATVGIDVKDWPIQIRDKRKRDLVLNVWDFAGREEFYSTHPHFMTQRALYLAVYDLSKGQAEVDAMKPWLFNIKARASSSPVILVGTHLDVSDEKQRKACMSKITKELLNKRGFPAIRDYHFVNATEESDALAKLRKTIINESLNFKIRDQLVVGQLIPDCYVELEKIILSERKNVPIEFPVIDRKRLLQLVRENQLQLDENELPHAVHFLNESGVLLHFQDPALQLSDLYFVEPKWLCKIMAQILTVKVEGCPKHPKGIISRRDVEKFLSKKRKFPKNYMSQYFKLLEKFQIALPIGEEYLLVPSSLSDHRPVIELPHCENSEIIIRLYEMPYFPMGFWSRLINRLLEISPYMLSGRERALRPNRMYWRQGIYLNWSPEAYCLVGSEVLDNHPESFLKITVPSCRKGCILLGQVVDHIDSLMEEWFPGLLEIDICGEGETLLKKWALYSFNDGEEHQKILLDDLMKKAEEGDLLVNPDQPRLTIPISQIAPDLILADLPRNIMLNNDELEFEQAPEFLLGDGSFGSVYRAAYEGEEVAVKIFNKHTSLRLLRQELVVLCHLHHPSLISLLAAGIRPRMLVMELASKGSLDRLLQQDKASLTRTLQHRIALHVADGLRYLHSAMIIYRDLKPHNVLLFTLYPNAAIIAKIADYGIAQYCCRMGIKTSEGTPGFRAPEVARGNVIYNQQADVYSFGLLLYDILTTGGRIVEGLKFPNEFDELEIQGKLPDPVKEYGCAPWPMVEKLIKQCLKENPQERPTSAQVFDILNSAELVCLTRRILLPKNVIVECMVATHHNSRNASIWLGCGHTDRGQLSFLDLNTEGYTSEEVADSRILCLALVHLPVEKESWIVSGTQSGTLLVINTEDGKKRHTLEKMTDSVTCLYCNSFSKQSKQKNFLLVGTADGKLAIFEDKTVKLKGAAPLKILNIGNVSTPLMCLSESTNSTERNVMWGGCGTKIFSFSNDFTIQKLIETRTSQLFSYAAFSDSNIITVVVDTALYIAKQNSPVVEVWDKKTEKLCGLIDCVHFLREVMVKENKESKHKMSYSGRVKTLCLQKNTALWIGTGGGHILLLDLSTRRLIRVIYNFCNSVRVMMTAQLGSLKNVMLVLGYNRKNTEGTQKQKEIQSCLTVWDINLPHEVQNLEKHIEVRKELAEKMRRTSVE

For `C[C@@H]1CCOc2nn(C3CCOCC3)c(C(F)(F)F)c2Nc2ncc(Cl)c(n2)N1` [E416, (11R)-14-Chloro-11-methyl-5-(oxan-4-yl)-4-(trifluoromethyl)-8-oxa-2,5,6,12,16,17-hexaazatricyclo[11.3.1.0^3,7]heptadeca-1(16),3,6,13(17),14-pentaene], the pIC50 in assay [1] and in assay [2] was not below 7.00 throughout.
Regarding `COCC1CCOc2nn(C3CCOCC3F)c(C)c2Nc2ncc(Cl)c(n2)N1` (single isomer, unassigned) [E351, 14-Chloro-5-(3-fluorooxan-4-yl)-11-(methoxymethyl)-4-methyl-8-oxa-2,5,6,12,16,17-hexaazatricyclo [11.3. 1.0^3,7]heptadeca-1(16),3,6,13(17),14-pentaene], the pIC50 in assay [1] and in assay [2] was not below 7.00 in each case.
For the compound `Cc1c2c(nn1C1CCOC(C)C1)OCCC(C(F)F)Nc1nc(ncc1Cl)N2` (centres unmarked) [E386, 14-Chloro-11-(difluoromethyl)-4-methyl-5-(2-methyloxan-4-yl)-8-oxa-2,5,6,12,16,17-hexaazatricyclo[11.3.1.0^3,7]heptadeca-1(16),3,6,13(17),14-pentaene], the pIC50 in assay [1] and in assay [2] was not below 7.00 each time.
Consider `COC1CNc2nc(ncc2Cl)Nc2c(nn(C3CCOCC3)c2C)OC1` (single isomer, unassigned) [E3, 14-chloro-10-methoxy-4-methyl-5-(oxan-4-yl)-8-oxa-2,5,6,12,16,17-hexaazatricyclo [11.3.1.0^3,7]heptadeca-1(16),3,6,13(17),14-pentaene], for which the pIC50 in assay [1] and in assay [2] was not below 7.00 in each case.
On to `CCOC1CNc2nc(ncc2Cl)Nc2c(nn(C3CCOCC3)c2C)OC1` (single isomer, unassigned) [E287, 14-Chloro-10-ethoxy-4-methyl-5-(oxan-4-yl)-8-oxa-2,5,6,12,16,17-hexaazatricyclo[11.3.1.0^3,7]heptadeca-1(16),3,6,13(17),14-pentaene], for which the pIC50 in assay [1] and in assay [2] was not below 7.00 each time.
Take `Cc1[nH]nc2c1Nc1ncc(Br)c(n1)NCCCO2` [E432, 14-Bromo-4-methyl-8-oxa-2,5,6,12,16,17-hexaazatricyclo[11.3.1.0^3,7]heptadeca-1(16),3,6,13(17),14-pentaene]: the pIC50 in assay [1] and in assay [2] was not below 7.00 throughout.
Take `Cc1c2c(nn1C1CCC(N3CCOCC3)C1)OCCCNc1nc(ncc1Cl)N2` (single isomer, unassigned) [E369, 14-Chloro-4-methyl-5-[3-(morpholin-4-yl)cyclopentyl]-8-oxa-2,5,6,12,16,17-hexaazatricyclo[11.3.1.0^3,7] heptadeca-1(16),3,6,13(17),14-pentaene]: the pIC50 in assay [1] and in assay [2] was not below 7.00 throughout.
Regarding `C[C@@H]1CCOc2nn(C3CN(C4COC4)C3)c(Cl)c2Nc2ncc(Cl)c(n2)N1` [E427, (11R)-4,14-Dichloro-11-methyl-5-[1-(oxetan-3-yl)azetidin-3-yl]-8-oxa-2,5,6,12,16,17-hexaazatricyclo[11.3.1.0^3,7]heptadeca-1(16),3,6,13(17),14-pentaene], the pIC50 in assay [1] and in assay [2] was not below 7.00 each time.
As to `COC1CNc2nc(ncc2Cl)Nc2c(nn(C3CC(C)OC(C)C3)c2C)OC1` (single isomer, unassigned) [E198, 14-Chloro-5-(2,6-dimethyloxan-4-yl)-10-methoxy-4-methyl-8-oxa-2,5,6,12,16,17-hexaazatricyclo[11.3.1.0^3,7] heptadeca-1(16),3,6,13(17),14-pentaene], the pIC50 in assay [1] and in assay [2] was not below 7.00 in each case.
`Cc1c2c(nn1C1CCOCC1)OCC(F)C(C)Nc1nc(ncc1Cl)N2` (single isomer, unassigned) [E64, 14-Chloro-10-fluoro-4,11-dimethyl-5-(oxan-4-yl)-8-oxa-2,5,6,12, 16,17-hexaazatricyclo[11.3.1.0^3,7]heptadeca-1(16),3,6,13(17),14-pentaene]: the pIC50 in assay [1] and in assay [2] was not below 7.00 each time.
Take `Cc1c2c(nn1[C@@H]1CCOC1)OCC[C@@H](C)Nc1nc(ncc1Cl)N2` [E47, (11R)-14-chloro-4,11-dimethyl-5-[(3R)-oxolan-3-yl]-8-oxa-2,5,6,12,16,17-hexaaza tricyclo [11.3.1.0^3,7]heptadeca-1(16),3,6,13(17),14-pentaene]: the pIC50 in assay [1] and in assay [2] was not below 7.00 each time.
Take `Cc1c2c(nn1C1CCOCC1)OCCCNc1nc(ncc1Br)N2` [E367, 14-Bromo-4-methyl-5-(oxan-4-yl)-8-oxa-2,5,6,12,16,17-hexaaza tricyclo[11.3.1.0^3,7]heptadeca-1(16),3,6,13(17),14-pentaene]: the pIC50 in assay [1] and in assay [2] was not below 7.00 each time.
In the case of `Cc1c2c(nn1C1CC(N3CCC(F)(F)C3)C1)OCCCNc1nc(ncc1Cl)N2` (centres unmarked) [E312, 14-Chloro-5-[3-(3,3-difluoropyrrolidin-1-yl)cyclobutyl]-4-methyl-8-oxa-2,5,6,12,16,17-hexaazatricyclo[11.3.1.0^3,7] heptadeca-1(16),3,6,13(17),14-pentaene], the pIC50 in assay [1] was 4.00; in assay [2], not below 7.00.
In the same order, the values of `Cc1c2c(nn1C(C)(C)C)OCC[C@@H](C)Nc1nc(ncc1Cl)N2` [E417, (11R)-5-tert-Butyl-14-chloro-4,11-dimethyl-8-oxa-2,5,6,12,16,17-hexaazatricyclo[11.3.1.0^3,7]heptadeca-1(16),3,6,13(17),14-pentaene] are not below 7.00 and not below 7.00.
In the same order, the values of `Cc1c2c(nn1C1CCOCC1)OCCCNc1nc(ncc1Cl)N2` [E1, 14-Chloro-4-methyl-5-(oxan-4-yl)-8-oxa-2,5,6,12,16,17-hexaazatricyclo [11.3.1.0^3,7]heptadeca-1(16),3,6,13(17),14-pentaene] are not below 7.00 and not below 7.00.
The corresponding values for `Cc1c2c(nn1C(C)(C)C(=O)O)OCCCNc1nc(ncc1Cl)N2` [E189, 2-{14-Chloro-4-methyl-8-oxa-2,5,6,12,16,17-hexaazatricyclo [11.3.1.0^3,7]heptadeca-1(16),3,6,13(17),14-pentaen-5-yl}-2-methylpropanoic acid] are not below 5.00 and less than 5.00.
Consider `Cc1c2c(nn1C1CCOCC1(F)F)OCCCNc1nc(ncc1Cl)N2` (single isomer, unassigned) [E415], for which the pIC50 in assay [1] and in assay [2] was not below 7.00 throughout.
Take `Cc1c2c(nn1C1CCN(C3COC3)CC1(F)F)OCC[C@@H](C)Nc1nc(ncc1Cl)N2` (stereo partly drawn) [E411, (11R)-14-Chloro-5-[3,3-difluoro-1-(oxetan-3-yl)piperidin-4-yl]-4,11-dimethyl-8-oxa-2,5,6,12,16,17-hexaazatricyclo[11.3.1. 0^3,7]heptadeca-1(16),3,6,13(17),14-pentaene]: the pIC50 in assay [1] and in assay [2] was not below 7.00 in each case.
In the case of `Cc1c2c(nn1C1CN(C3CCOCC3)C1)OCCCNc1nc(ncc1Cl)N2` [E366, 14-Chloro-4-methyl-5-[1-(oxan-4-yl)azetidin-3-yl]-8-oxa-2,5,6,12, 16,17-hexaazatricyclo[11.3.1.0^3,7]heptadeca-1(16),3,6,13(17),14-pentaene], the pIC50 in assay [1] and in assay [2] was not below 7.00 throughout.
In the case of `Cc1c2c(nn1C1CCOCC1)OCCCNc1cc(ncc1Cl)N2` [E134, 14-Chloro-4-methyl-5-(oxan-4-yl)-8-oxa-2,5,6,12,16-pentaaza tricyclo[11.3.1.0^3,7]heptadeca-1(16),3,6,13(17),14-pentaene], the pIC50 in assay [1] and in assay [2] was not below 7.00 in each case.
As for `FC(F)(F)c1cnc2nc1NCCCOc1nn(C3CCCOC3)cc1N2` (centres unmarked) [E130, 5-(Oxan-3-yl)-14-(trifluoromethyl)-8-oxa-2,5,6,12,16,17-hexaaza tricyclo[11.3.1.0^3,7]heptadeca-1(16),3,6,13(17),14-pentaene], the pIC50 in assay [1] and in assay [2] was not below 7.00 each time.
In the case of `Cc1c2c(nn1C1CCN(C3COC3)CC1F)OCCCNc1nc(ncc1Cl)N2` (single isomer, unassigned) [E61, trans-14-chloro-5-[3-fluoro-1-(oxetan-3-yl)piperidin-4-yl]-4-methyl-8-oxa-2,5,6,12,16,17-hexaazatricyclo[11.3.1.0^3,7]heptadeca-1(16),3,6,13(17),14-pentaene], the pIC50 in assay [1] and in assay [2] was not below 7.00 throughout.
Take `Cc1c2c(nn1CCN1CCOCC1)OCCC(C)Nc1nc(ncc1Cl)N2` (single isomer, unassigned) [E213, 14-Chloro-4,11-dimethyl-5-[2-(morpholin-4-yl)ethyl]-8-oxa-2,5,6,12,16,17-hexaazatricyclo[11.3.1.0^3,7] heptadeca-1(16),3,6,13(17),14-pentaene]: the pIC50 in assay [1] and in assay [2] was not below 7.00 throughout.
Consider `Cc1c2c(nn1CC(F)(F)F)OCCCNc1nc(ncc1Cl)N2` [E266, 14-Chloro-4-methyl-5-(2,2,2-trifluoroethyl)-8-oxa-2,5,6,12,16,17-hexaazatricyclo[11.3.1.0^3,7]heptadeca-1(16),3,6,13(17),14-pentaene], for which the pIC50 in assay [1] and in assay [2] was not below 7.00 each time.
With `Cc1c2c(nn1C(C)C1CCOCC1)OCCCNc1nc(ncc1Cl)N2` (single isomer, unassigned) [E186, 14-Chloro-4-methyl-5-[1-(oxan-4-yl)ethyl]-8-oxa-2,5,6,12,16,17-hexaazatricyclo[11.3.1.0^3,7]heptadeca-1(16), 3,6,13(17),14-pentaene], the pIC50 in assay [1] and in assay [2] was not below 7.00 in each case.
